Source: publication PMC9453454, “Design, synthesis, and anticancer activity of three novel palbociclib derivatives” (Frontiers in Oncology, 2022)
Where two headings read alike, the source gives them in different places.

Tests used:
[1] = system: HepG2 cells; experiment: MTT in vitro cytotoxicity, HepG2; assay type: cell-based, human
Description: (§1) Human lung cancer cells (NCI-H460, NCI-H1299, and A549), human breast cancer cells (MDA-MB-231, MDA-MB-453, and MCF-7), human liver cancer cells (Huh-7 and HepG2), human colon cancer cells (coca-2, HT-29, and HCT116), human cervical cancer cells (HeLa), human normal lung cells (BEAS-2B), and human normal […] (MCF-10) were from the State Key Laboratory of Pharmaceutical Biotechnology, Nanjing University. NCI-H460 were cultured in 1640 medium containing 10% fetal bovine serum (FBS). MDA-MB-231 were cultured in L15 medium containing 10% FBS without CO2, and other cell lines were cultured in DMEM medium containing 10% FBS CO2 in the incubator.
(§2) MTT assay was used to identify 14 different cell lines (human lung cancer cells NCI-H460, NCI-H1299, and A549; human breast cancer cells MDA-MB-231, MDA-MB-453, and MCF-7; human liver cancer cells Huh-7 and HepG2; human colon cancer cells coca-2, HT-29, and HCT116; and human cervical cancer cells HeLa) and 2 kinds of normal cell lines (human normal lung epithelial cells BEAS-2B, human normal breast epithelial cells MCF10-A) for quantitative analysis ([15]). In addition, 10-HCPT and palbociclib were used as positive control.
(§3) Cells were harvested during the logarithmic growth phase and seeded into 96-well plates at a density of 2.0×10^3 cells/well. After being incubated for 24 h, the cells were treated with different concentrations of various culture programs for 48 h. Afterwards, 20 μl of MTT solution (5 mg/ml) was added to each well, and the cells were incubated in a 5% CO2 atmosphere at 37°C for another 4 h. Then, the supernatant was discarded, and the formazan crystals were dissolved in 150 μl DMSO. Subsequently, the absorbance was measured at 570 nm via a Tecan microplate reader. The concentration that caused 50% inhibition of cell viability (IC50) values was calculated by GraphPad Software. Triplicate experiments were performed in parallel for each concentration, and the results are shown as the mean ± SD. The inhibitory ratio was calculated using the following formula: inhibitory ratio (%) = [1−(mean absorbance of experiment group)/(mean absorbance of control group)] × 100.

[2] = system: HCT116 cells; experiment: MTT in vitro cytotoxicity, HCT116; assay type: cell-based, human
Description: as §1, §2, §3

[3] = system: Huh-7 cells; experiment: MTT in vitro cytotoxicity, Huh-7; assay type: cell-based, human
Description: as §1, §2, §3

[4] = system: MDA-MB-453 cells; experiment: MTT in vitro cytotoxicity, MDA-MB-453; assay type: cell-based, human
Description: as §1, §2, §3

[5] = system: NCI-H1299 cells; experiment: MTT in vitro cytotoxicity, NCI-H1299; assay type: cell-based, human
Description: as §1, §2, §3

[6] = system: HT-29 cells; experiment: MTT in vitro cytotoxicity, HT-29; assay type: cell-based, human
Description: as §1, §2, §3

[7] = system: A549 cells; experiment: MTT in vitro cytotoxicity, A549; assay type: cell-based, human
Description: as §1, §2, §3

[8] = system: MCF-7 cells; experiment: MTT in vitro cytotoxicity, MCF-7; assay type: cell-based, human
Description: as §1, §2, §3

[9] = system: MCF10-A cells; experiment: MTT in vitro cytotoxicity, MCF10-A normal breast epithelial cells; assay type: cell-based, human; settings: MCF-10A, 48 h
Description: as §1, §2, §3

[10] = system: Hela cells; experiment: MTT in vitro cytotoxicity, Hela; assay type: cell-based, human; settings: 48 h
Description: as §1, §2, §3

[11] = system: Coca-2 cells; experiment: MTT in vitro cytotoxicity, Coca-2; assay type: cell-based, human; settings: 48 h
Description: as §1, §2, §3

[12] = system: BEAS-2B cells; experiment: MTT in vitro cytotoxicity, BEAS-2B normal lung epithelial cells; assay type: cell-based, human; settings: 48 h
Description: as §1, §2, §3

[13] = system: NCI-H460 cells; experiment: MTT in vitro cytotoxicity, NCI-H460; assay type: cell-based, human
Description: as §1, §2, §3

[14] = system: MDA-MB-231 cells; experiment: MTT in vitro cytotoxicity, MDA-MB-231; assay type: cell-based, human
Description: as §1, §2, §3

[15] = system: Cyclin D, CDK4, CDK6, Rb, and p-Rb; experiment: Western blot of Cyclin D-CDK4/6-Rb pathway proteins in NCI-H460; assay type: cell-based, human; settings: NCI-H460, 0, 0.5, 1, 2 μM for 24 h
Description: (§4) NCI-H460 cells were harvested in logarithmic growth phase and seeded into six-well plates at a density of 5.0 × 10^3 cells/well. After being incubated for 48 h, the cells were harvested with 0.25% Trypsin after exposed to various concentrations of HP-1 (0, 0.5, 1, 2 μM), 10-HCPT (2 μM), and pabocini (2 μM) for 24 h.Then, precooled radio-immunoprecipitation assay (RIPA) lysates [10 mM Tris–HCl, 1 mM EDTA, 1% sodium dodecyl sulfate (SDS), 1 mM dithiothreitol (DTT), 0.1 mM phenylmethylsulfonyl fluoride (PMSF), protease inhibitors, 1% Nonidet P-40, pH 8] were added to them and placed on ice to lyse the cells for 30 min. After centrifugation at 10,000 rpm and 4°C for 10 min, the supernatant was collected to obtain soluble proteins. Lysates were centrifuged at 10,000 rpm for 20 min at 4°C, and the supernatant was collected.
(§5) The absorbance value was measured at 562 nm using a microplate analyzer to calculate the protein content. An equal amount of protein was separated by 10% SDS–polyacrylamide gel electrophoresis (SDS-PAGE) gels and transferred onto PVDF membrane. […] Finally, the membrane was placed on the membrane carrier plate, and the bands were detected with enhanced chemiluminescence reagent to indicate the protein expression.

[16] = system: PI3K, AKT, p-PI3K, and p-AKT; experiment: Western blot of PI3K/AKT pathway-related proteins in NCI-H460; assay type: cell-based, human; settings: NCI-H460, 0, 0.5, 1, 2 μM for 24 h
Description: as §4, §5

[17] = system: NCI-H460 cells; experiment: Annexin V/PI apoptosis by flow cytometry, NCI-H460; assay type: cell-based, human; settings: same concentration (not given)
Description: NCI-H460 cells were harvested in logarithmic growth phase and seeded into six-well plates at a density of 5.0 × 10^3 cells/well. After being incubated for 24 h, the cells were harvested with 0.25% Trypsin after exposed to various culture programs, washed with PBS, and re-suspended in 500 μl binding buffer. The experiment was triply replicated. Then, the cells were stained by adding to 5 μl Annexin V-FITC and 5 μl PI for15 min at 25°C in the dark. Finally, the cells were detected and analyzed using a flow cytometer with FlowJo 7.6.1.

Compound: CC[C@@]1(O)C(=O)OCc2c1cc1n(c2=O)Cc2cc3cc(O)ccc3nc2-1 [10-HCPT, 10-hydroxycamptothecin, reference compound]
- IC50 ([1]; Homo sapiens, HepG2, 48 h): 2.45 ± 0.27 µM
- IC50 ([2]; Homo sapiens, HCT-116, 48 h): 10.4 ± 0.7 µM
- IC50 ([3]; Homo sapiens, Huh-7, 48 h): 7.69 ± 0.84 µM
- IC50 ([4]; Homo sapiens, MDA-MB-453, 48 h): 5.73 ± 0.62 µM
- IC50 ([5]; Homo sapiens, NCI-H1299, 48 h): 3.39 ± 0.16 µM
- IC50 ([6]; Homo sapiens, HT-29, 48 h): 4.61 ± 0.19 µM
- IC50 ([7]; Homo sapiens, A549, 48 h): 4.14 ± 0.03 µM
- IC50 ([8]; Homo sapiens, MCF7, 48 h): 13.2 ± 0.31 µM
- IC50 ([9]; Homo sapiens): 20.3 ± 0.59 µM
- IC50 ([10]; Homo sapiens, HeLa): 6.54 ± 0.07 µM
- IC50 ([11]; Homo sapiens): 13.4 ± 0.34 µM
- IC50 ([12]; Homo sapiens, BEAS-2B): 7.05 ± 0.52 µM
- IC50 ([13]; Homo sapiens, NCI-H460, 48 h): 1.96 ± 0.01 µM
- IC50 ([14]; Homo sapiens, MDA-MB-231, 48 h): 15.5 ± 1.07 µM

Compound: CC[C@]1(O)C(=O)OCc2c1cc1n(c2=O)Cc2cc3cc(OC(=O)CCCC(=O)N4CCN(c5ccc(Nc6ncc7c(C)c(C(C)=O)c(=O)n(C8CCCC8)c7n6)nc5)CC4)ccc3nc2-1 [HP-1, (R)-4-ethyl-4-hydroxy-3,14-dioxo-3,4,12,14-tetrahydro-1H-pyrano[3’,4’:6,7] indolizino[1,2-b]quinolin-9-yl5-(4-(6-((6-acetyl-8-cyclopentyl-5-methyl-7-oxo-7,8-dihydropyrido[2,3-d]pyrimidin-2-yl)amino)pyridin-3-yl)piperazin-1-yl)-5-oxopentanoate]
- IC50 ([1]; HepG2 human liver cancer cells, MTT, 48 h, read-out: IC50): 2.57 ± 0.42 µM
- IC50 ([2]; HCT-116, HCT116 human colon cancer cells, MTT, 48 h, read-out: IC50): 17.1 ± 0.31 µM
- IC50 ([3]; Huh-7 human liver cancer cells, MTT, 48 h, read-out: IC50): 9.48 ± 1.59 µM
- IC50 ([4]; MDA-MB-453 human breast cancer cells, MTT, 48 h, read-out: IC50): 5.28 ± 0.81 µM
- Protein expressions of Cyclin D, CDK4, CDK6, Rb, and p-Rb [15]: significantly decreased
- expression of PI3K, AKT, p-PI3K, and p-AKT [16]: decreased
- IC50 ([5]; NCI-H1299 human lung cancer cells, MTT, 48 h, read-out: IC50): 2.29 ± 0.02 µM
- IC50 ([6]; HT-29 human colon cancer cells, MTT, 48 h, read-out: IC50): 12.4 ± 1.62 µM
- IC50 ([7]; A549 human lung cancer cells, MTT, 48 h, read-out: IC50): 3.41 ± 0.22 µM
- Q1 (annexin V/PI quadrant) ([17]; NCI-H460, 12h): 0.32
- Q2 (annexin V/PI quadrant) ([17]; NCI-H460, 12h): 9.93
- Q3 (annexin V/PI quadrant) ([17]; NCI-H460, 12h): 13.4
- Q4 (annexin V/PI quadrant) ([17]; NCI-H460, 12h): 76.4
- Q1 (annexin V/PI quadrant) ([17]; NCI-H460, 24h): 0.80
- Q2 (annexin V/PI quadrant) ([17]; NCI-H460, 24h): 33.7
- Q3 (annexin V/PI quadrant) ([17]; NCI-H460, 24h): 31.4
- Q4 (annexin V/PI quadrant) ([17]; NCI-H460, 24h): 34.0
- Q1 (annexin V/PI quadrant) ([17]; NCI-H460, 36h): 0.66
- Q2 (annexin V/PI quadrant) ([17]; NCI-H460, 36h): 61.8
- Q3 (annexin V/PI quadrant) ([17]; NCI-H460, 36h): 33.6
- Q4 (annexin V/PI quadrant) ([17]; NCI-H460, 36h): 3.91
- IC50 ([8]; MCF7, MCF-7 human breast cancer cells, MTT, 48 h, read-out: IC50): 10.3 ± 1.68 µM
- IC50 ([9]; MCF10-A human normal breast epithelial cells, MTT, read-out: IC50): 32.4 ± 1.33 µM
- melting point: 44.5 to 46.4 °C
- IC50 ([10]; Hela human cervical cancer cells, MTT, read-out: IC50): 5.46 ± 0.08 µM
- IC50 ([11]; Coca-2 human colon cancer cells, MTT, read-out: IC50): 15.2 ± 0.54 µM
- IC50 ([12]; BEAS-2B human normal lung epithelial cells, MTT, read-out: IC50): 36.4 ± 0.43 µM
- IC50 ([13]; NCI-H460 human lung cancer cells, MTT, 48 h, read-out: IC50): 0.96 ± 0.01 µM
- IC50 ([14]; MDA-MB-231 human breast cancer cells, MTT, 48 h, read-out: IC50): 15.3 ± 2.51 µM
